Source: patent US8080517B2, “Cell-permeable peptide inhibitors of the JNK signal transduction pathway” (Xigen SA, priority 2005, dated 2011)
Entries after “also recorded” stand apart in the source; their conditions may differ. Where a SMILES comes first, the peptide text is derived from it. [ ]: non-standard residue; d: D form.

Legend:
WiDr cells = assay: Irradiation (30 Gy) induced apoptosis; format: cell-based, human; settings: 1 μM added 30 minutes before 30 Gy, analyzed 48 hours later
Description: JNK is also activated by ionizing radiation. To determine whether inventive TAT-IB(s) peptides would provide protection against radiation-induced JNK damage, “WiDr” cells were irradiated (30 Gy) in presence or absence of D-TAT, inventive L-TAT-IB1(s) or inventive D-TAT-IB1(s) peptides (1 μM added 30 minutes before irradiation). Control cells (CTRL) were not irradiated. Cells were analyzed 48 hours later by means of PI and Hoechst 3342 staining, as described above. N=3, SEM are indicated.

[1] = Noise trauma, hearing threshold shifts by auditory brainstem response; format: in vivo, guinea pigs
Description: D-TAT-IB1(s) was applied onto the round window membrane of the cochlea of 3 groups of guinea pigs (each group with 6 animals) in 2 microliters of a gel formulation of 2.6% buffered hyaluronic acid (Hylumed, Genzyme Corp.) at a concentration of 100 µM either 30 minutes before noise trauma (120 dB at 6 kHz during 30 minutes) or 30 minutes or 4 hours thereafter. Untreated ears served as control. Hearing threshold shifts were evaluated by auditory brainstem response measurements 20 minutes after noise trauma (temporary threshold shift, TTS) and 15 days following the trauma (permanent threshold shift, PTS). […] Thus, D-TAT-IB1 (s) is a very effective otoprotective compound in case of noise trauma.

βTC-3 cells = assay: IL-1β induced pancreatic β-cell death, peptide treatment, propidium iodide / Hoechst 33342 staining; format: cell-based; settings: one single addition 1 μM, IL-1β 10 ng/ml every two days, 15 days
Description: We investigated the effects of the inventive L-TAT-IB(s) peptides on the promotion of β-cell apoptosis elicited by IL-1. βTC-3 cell cultures were incubated for 30 minutes with 1 μM of inventive L-TAT-IB1(s) peptides followed by 10 ng/mL of IL-1. A second addition of peptide (1 μM) was performed 24 hours later. Apoptotic cells were counted after two days of incubation with IL-1 β using propidium iodide (red stained cell are dead cells) and Hoechst 33342 (blue stained cell are cells with intact plasma membrane) nuclear staining.
Long term inhibition of IL-1 induced cells death was examined by treating βTC-3 cells as described above, except that incubation of the cells with the peptides and IL-1 β was sustained for 12 days. Additional peptides (1 μM) were added each day and additional IL-1 β (10 ng/mL) was added every 2 days. […] Taken together, these experiments provide evidence that inventive TAT-IB(s) peptides are biologically active molecules able to prevent the effects of JNK signaling on cell fate.
Inhibition of IL-1 β induced pancreatic β-cell death by the inventive D-TAT-IB1(s) peptide was analyzed. βTC-3 cells were incubated as described above for 30 minutes with one single addition of the indicated peptides (1, μM), then IL-1 (10 ng/ml) was added.
Apoptotic cells were then counted after two days of incubation with IL-1 β by use of Propidium Iodide and Hoechst 33342 nuclear staining. A minimum of 1,000 cells were counted for each experiment. Standard Error of the Means (SEM) are indicated, n=5.
Long term inhibition of IL-1P induced cell-death by the D-TAT-IB1 peptide was also analyzed. βTC-3 cells were incubated as above for 30 minutes with one single addition of the indicated peptides (1 μM), then IL-1 β (10 ng/ml) was added, followed by addition of the cytokine every two days. Apoptotic cells were then counted after 15 days of incubation with IL-1 by use of propidium iodide and Hoechst 33342 nuclear staining. […] A minimum of 1.000 cells were counted for each experiment.

[2] = test system: cortical neuronal culture; assay: LDH release from cortical neuronal cultures following NMDA stimulation; format: cell-based, rat; settings: 5 μM pre-treatment 30 min, 100 μM NMDA, 12 h
Description: The neuroprotective effect of the D-TAT-IB (generic)(s)/D-JNKI1 peptide (SEQ ID NO: 12) was evaluated in sister cultures pre-treated for 30 min with the indicated concentrations of peptides or MK-801 before continuous exposure to 100 μM NMDA.
Cortical neuronal culture. We dissected small pieces of cortex from the brains of two day old rat pups, incubated them with 200 units of papain for 30 min at 34° C., and then plated the neurons at densities of approximately 1×10^6 cells/plate on dishes pre-coated with 100 μg/ml poly-D-lysine. The plating medium consisted of B27/Neurobasal (Life Technologies, Gaithersburg, Md.) supplemented with 0.5 mM glutamine, 100 U/ml penicillin and 100 ug/ml streptomycin.
Lactate dehydrogenate (LDH) cytotoxicity assay. LDH released into the bathing medium 12, 24 and 48 h after NMDA administration was measured using the Cytotox 96 non-radioactive cytotoxicity assay kit (Promega, Wis.) (see FIG. 5).

[3] = Focal cerebral ischaemia, transient MCAO model, infarct volume; format: in vivo, male ICR-CD1 mice; settings: i.v. administration, FIG. 4
Excerpt: Evaluation of neuroprotection by inventive chimeric peptides after iv administration against focal cerebral ischaemia, in a transient MCAO model (see FIG. 4).
Transient ischemia in adult mice. Using male ICR-CD1 mice (6 weeks old; 18-37 g; Harlan), we provoked ischemia by introducing a filament from the common carotid artery into the internal carotid and advancing it into the arterial circle, thereby occluding the middle cerebral artery. We measured regional cerebral blood flow by laser Doppler flowmetry, with a probe fixed on the skull throughout the ischemia until 10 min after reperfusion. Rectal temperature was measured and maintained at 37° C. The mice were killed 48 h after reperfusion. Serial cryostat sections 20 μm thick were traced using a computer-microscope system equipped with the Neurolucida program (MicroBrightField) and the volumes of the ischemic area and of the whole brain were calculated (blinded) with the Neuroexplorer program. XG−102 0.3=0.3 mg/kg,XG−102 1=1 mg/kg, XG−102 5=5 mg/kg
The infarct volume sizes (mm^3) after bolus iv administration of placebo and XG-102 0.3, […] 6 hours after reperfusion (30 minutes clamp) in an adult mice model were as follows.

## CC(C)C[C@@H](NC(=O)[C@@H](Cc1ccccc1)NC(=O)[C@H]1CCCN1C(=O)[C@@H](CCC(N)=O)NC(=O)[C@H](NC(=O)[C@H]1CCCN1C(=O)[C@@H](CCCNC(=N)N)NC(=O)[C@@H](CO)NC(=O)[C@@H](CCC(N)=O)NC(=O)[C@H](N)CC(=O)O)C(C)C)C(=O)N[C@H](CC(N)=O)C(=O)N[C@H](CC(C)C)C(=O)N[C@@H](C(=O)N[C@@H](C(=O)N1CCC[C@@H]1C(=O)N[C@H](CCCNC(=N)N)C(=O)N[C@H](CCCCN)C(=O)N1CCC[C@@H]1C(=O)N[C@H](CCCNC(=N)N)C(=O)N1CCC[C@@H]1C(=O)N1CCC[C@@H]1C(=O)N[C@H](CCCNC(=N)N)C(=O)N[C@H](CCCNC(=N)N)C(=O)N[C@H](CCCNC(=N)N)C(=O)N[C@H](CCC(N)=O)C(=O)N[C@H](CCCNC(=N)N)C(=O)N[C@H](CCCNC(=N)N)C(=O)N[C@H](CCCCN)C(=O)N[C@H](CCCCN)C(=O)N[C@H](CCCNC(=N)N)C(=O)NCC(=O)O)[C@H](C)O)[C@H](C)O [D-TAT-IB1(s)] (H-[dD][dQ][dS][dR][dP][dV][dQ][dP][dF][dL][dN][dL][dT][dT][dP][dR][dK][dP][dR][dP][dP][dR][dR][dR][dQ][dR][dR][dK][dK][dR]G-OH)
WiDr cells
  prevention of irradiation induced apoptosis: able to prevent irradiation induced apoptosis
[1]; 100 μM in hyaluronic acid gel on round window membrane 30 minutes before noise trauma (120 dB at 6 kHz, 30 minutes)
  protection against permanent hearing loss (PTS, 15 days): protects substantially against permanent hearing loss from noise trauma if applied preventively before the noise exposure
[1]; 100 μM in hyaluronic acid gel on round window membrane 30 minutes or 4 hours after noise trauma
  permanent threshold shift (PTS, 15 days) versus untreated control ears: significantly lower; also recorded: protected against permanent hearing loss even if applied after exposure to excessive noise
[1]; 30 minutes versus 4 hours after trauma
  dependence of the protective effect on time of administration after noise trauma: in a time-dependent fashion if administered after trauma; also recorded: stronger the earlier
βTC-3 cells
  long term inhibition of IL-1β induced cell-death: able to confer long term (15 day) protection
[2]
  degenerative changes due to NMDA exposure (LDH release above controls): completely inhibited
  morphological appearance, number and distribution of the neurons: indistinguishable from the controls
[3]
  neuroprotection (infarct volumes): provides efficient neuroprotection
